In ChEMBL document CHEMBL1909046, “DrugMatrix in vitro pharmacology data”:

Tests used:
[1] = DRUGMATRIX: Glutamate, NMDA, Phencyclidine radioligand binding (ligand: [3H] TCP); assay type: cell membranes, Rattus norvegicus, Wistar, Cerebral cortex, Membrane; settings: Not Active = under 50% inhibition at 10 µM
[2] = DRUGMATRIX: Interleukin IL-1 radioligand binding (ligand: [125I] interleukin 1beta); assay type: cell membranes, Membrane; settings: nih3t3; Not Active = under 50% inhibition at 10 µM
[3] = DRUGMATRIX: Glutamate, NMDA, Agonism radioligand binding (ligand: [3H] CGP-39653); assay type: cell membranes, Rattus norvegicus, Wistar, Cerebral cortex, Membrane; settings: Not Active = under 50% inhibition at 10 µM
[4] = molecular target: T1, Glucocorticoid receptor (Homo sapiens, UniProt P04150); settings: hela s3; further: in other assays of this panel Not Active means under 50% inhibition at 10 µM
T1 sequence (P04150 whole entry): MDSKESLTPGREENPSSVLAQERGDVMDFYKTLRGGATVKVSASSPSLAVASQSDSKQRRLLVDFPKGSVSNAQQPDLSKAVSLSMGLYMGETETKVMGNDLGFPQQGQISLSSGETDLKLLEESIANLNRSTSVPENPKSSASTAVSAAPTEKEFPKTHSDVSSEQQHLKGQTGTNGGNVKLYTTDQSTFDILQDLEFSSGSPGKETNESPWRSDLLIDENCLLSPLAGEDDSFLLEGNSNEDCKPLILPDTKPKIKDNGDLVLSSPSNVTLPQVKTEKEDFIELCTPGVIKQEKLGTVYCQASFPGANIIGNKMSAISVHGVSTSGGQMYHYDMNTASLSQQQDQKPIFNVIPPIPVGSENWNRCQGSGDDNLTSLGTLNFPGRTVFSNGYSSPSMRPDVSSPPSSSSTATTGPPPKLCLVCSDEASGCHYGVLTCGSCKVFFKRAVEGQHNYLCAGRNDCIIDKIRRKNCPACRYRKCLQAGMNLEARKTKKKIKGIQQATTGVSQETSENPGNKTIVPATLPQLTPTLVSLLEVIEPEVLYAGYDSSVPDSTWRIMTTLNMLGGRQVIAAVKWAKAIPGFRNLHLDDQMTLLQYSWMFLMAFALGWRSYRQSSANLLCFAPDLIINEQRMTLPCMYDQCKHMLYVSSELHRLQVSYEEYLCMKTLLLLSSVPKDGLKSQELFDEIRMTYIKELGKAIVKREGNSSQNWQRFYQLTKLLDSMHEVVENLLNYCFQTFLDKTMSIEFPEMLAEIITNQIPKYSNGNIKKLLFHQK

[5] = molecular target: Beta-1 adrenergic receptor (Homo sapiens, UniProt P08588); test: DRUGMATRIX: Adrenergic beta1 radioligand binding (ligand: [125I] Cyanopindolol); assay type: cell membranes, CHO-K1, Membrane; settings: cho-k1; Not Active = under 50% inhibition at 10 µM
Sequence of Beta-1 adrenergic receptor (P08588 whole entry): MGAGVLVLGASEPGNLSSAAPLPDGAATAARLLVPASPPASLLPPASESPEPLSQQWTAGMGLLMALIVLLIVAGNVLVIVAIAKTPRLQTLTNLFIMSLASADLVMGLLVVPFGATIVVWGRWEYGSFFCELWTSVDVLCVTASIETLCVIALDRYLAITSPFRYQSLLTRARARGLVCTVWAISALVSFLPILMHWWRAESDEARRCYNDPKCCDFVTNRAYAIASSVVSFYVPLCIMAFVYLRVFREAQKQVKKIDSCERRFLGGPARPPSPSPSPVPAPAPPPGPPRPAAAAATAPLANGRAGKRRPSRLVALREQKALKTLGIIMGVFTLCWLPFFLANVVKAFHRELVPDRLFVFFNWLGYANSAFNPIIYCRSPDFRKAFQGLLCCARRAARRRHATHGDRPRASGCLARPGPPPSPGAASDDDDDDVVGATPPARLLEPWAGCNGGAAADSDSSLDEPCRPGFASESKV

[6] = DRUGMATRIX: ATPase, Na+/K+ enzyme inhibition (substrate: ATP); assay type: tissue-based, Sus scrofa, Heart; settings: Not Active = under 50% inhibition at 10 µM
[7] = DRUGMATRIX: Calcium Channel Type L, Phenylalkylamine radioligand binding (ligand: [3H] (-)-Desmethoxyverapamil (D-888)); assay type: cell membranes, Rattus norvegicus, Wistar, Brain, Membrane; settings: Not Active = under 50% inhibition at 10 µM
[8] = molecular target: Mu-type opioid receptor (Homo sapiens, UniProt P35372); test: DRUGMATRIX: Opiate mu (OP3, MOP) radioligand binding (ligand: [3H] Diprenorphine); assay type: cell membranes, CHO-K1, Membrane; settings: cho-k1; Not Active = under 50% inhibition at 10 µM
Sequence of Mu-type opioid receptor (P35372 whole entry): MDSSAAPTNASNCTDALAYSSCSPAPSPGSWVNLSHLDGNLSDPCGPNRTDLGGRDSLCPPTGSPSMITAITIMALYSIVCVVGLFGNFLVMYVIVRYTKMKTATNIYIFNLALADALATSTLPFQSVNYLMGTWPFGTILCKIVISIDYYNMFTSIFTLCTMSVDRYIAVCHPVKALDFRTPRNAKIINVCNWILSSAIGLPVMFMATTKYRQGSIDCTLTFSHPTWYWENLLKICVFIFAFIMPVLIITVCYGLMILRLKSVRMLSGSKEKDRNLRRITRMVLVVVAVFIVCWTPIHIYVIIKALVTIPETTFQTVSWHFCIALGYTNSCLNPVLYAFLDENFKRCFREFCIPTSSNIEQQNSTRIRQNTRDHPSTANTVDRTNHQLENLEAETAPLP

C[N+](C)(C)CCOC(=O)CCC(=O)OCC[N+](C)(C)C.[Cl-].[Cl-] [SUCCINYLCHOLINE CHLORIDE]
Not Active: IC50 [1] | Ki [1] | IC50 [2] | Ki [2] | IC50 [3] | Ki [3] | IC50 [4] | IC50 [5] | IC50 [6] | Ki [6] | IC50 [7] | Ki [7] | IC50 [8]
